In US20200024278A1, “COMPOSITION COMPRISING ANTIBIOTIC COMPOUND AND AN HETEROCYCLIC COMPOUND AND THEIR USE IN PREVENTING OR TREATING BACTERIAL INFECTIONS” (MUTABILIS, priority 2016, published 2020):
Counter-ions that a name gives are not always drawn. Like-named read-outs stand apart in the source and are kept apart here.

Key:
Experiment in all cases: MIC, broth microdilution (CLSI), substance alone or ATB combined with compound at 4 or 8 μg/mL
Format in all cases: cell-based, A. baumannii
Conditions in all cases: for MIC: Acinetobacter baumannii
[1] = tested on: ABA UFR161
Summary of the method: (§1)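 CLSI M7-A7 broth microdilution. ca-MHB, 5·10^5 CFU/mL log-phase cells, 16-20 h, 35° C, ambient air. Fosfomycin wells + 25 μg/ml glucose-6-phosphate. Visual MIC read.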

[2] = tested on: ABA UFR157
Summary of the method: as §1

[3] = tested on: ABA UFR152
Summary of the method: as §1

[4] = tested on: ABA UFR158
Summary of the method: as §1

[5] = tested on: ABA UFR154
Summary of the method: as §1

[6] = tested on: ABA UFR156
Summary of the method: as §1

[7] = tested on: ABA UFR155
Summary of the method: as §1

[8] = tested on: ABA UFR159
Summary of the method: as §1

[9] = tested on: ABA 19606
Summary of the method: as §1

[10] = tested on: ABA UFR153
Summary of the method: as §1

[11] = tested on: ABA 107292
Summary of the method: as §1

[12] = antibiotic alone, read-out: MIC ATB alone

NCCCn1c2c(sc1=O)C1CN(C2)C(=O)N1OS(=O)(=O)O (centres unmarked) [Example 10, [5-(3-aminopropyl)-4,9-dioxo-3-thia-5,8,10-triaza-tricyclo[6.2.1.0^2,6]undec-2(6)-en-10-yl] hydrogen sulfate]
32 µg/mL: MIC ([3]; substance alone, read-out: MIC) | MIC ([9]; substance alone, read-out: MIC) | MIC ([10]; substance alone, read-out: MIC)
> 32 µg/mL: MIC ([1]; substance alone, read-out: MIC) | MIC ([2]; substance alone, read-out: MIC) | MIC ([4]; substance alone, read-out: MIC) | MIC ([5]; substance alone, read-out: MIC) | MIC ([6]; substance alone, read-out: MIC) | MIC ([7]; substance alone, read-out: MIC) | MIC ([8]; substance alone, read-out: MIC) | MIC ([11]; substance alone, read-out: MIC)

CO/N=C(\C(=O)N[C@@H]1C(=O)N2C(C(=O)[O-])=C(C[N+]3(C)CCCC3)CS[C@H]12)c1csc(N)n1 [FEP, Cefepime]
1 µg/mL: MIC ATB combined with Example 3 @8 μg/ml ([5]; with Example 3 @8 μg/ml) | MIC ATB combined with Example 6 @8 μg/ml ([5]; with Example 6 @8 μg/ml) | MIC ATB combined with Example 9 @4 μg/ml ([5]; with Example 9 @4 μg/ml) | MIC ATB combined with Example 11 @8 μg/ml ([5]; with Example 11 @8 μg/ml) | MIC ATB combined with Example 12 @8 μg/ml ([5]; with Example 12 @8 μg/ml)
32 µg/mL: MIC [2, 12] | MIC ATB combined with Example 1 @8 μg/ml ([6]; with Example 1 @8 μg/ml) | MIC ATB combined with Example 9 @4 μg/ml ([6]; with Example 9 @4 μg/ml) | MIC ATB combined with Example 11 @8 μg/ml ([6]; with Example 11 @8 μg/ml) | MIC ATB combined with Example 12 @8 μg/ml ([6]; with Example 12 @8 μg/ml) | MIC ATB combined with Example 15 @4 μg/ml ([6]; with Example 15 @4 μg/ml) | MIC ATB combined with Example 3 @8 μg/ml ([7]; with Example 3 @8 μg/ml) | MIC ATB combined with Example 9 @4 μg/ml ([7]; with Example 9 @4 μg/ml) | MIC ATB combined with Example 15 @4 μg/ml ([7]; with Example 15 @4 μg/ml) | MIC ATB combined with Example 1 @8 μg/ml ([9]; with Example 1 @8 μg/ml) | MIC ATB combined with Example 11 @8 μg/ml ([11]; with Example 11 @8 μg/ml) | MIC ATB combined with Example 15 @4 μg/ml ([11]; with Example 15 @4 μg/ml)
0.5 µg/mL: MIC ATB combined with Example 10 @8 μg/ml ([5]; with Example 10 @8 μg/ml)
<0.25 µg/mL: MIC ATB combined with Example 6 @8 μg/ml ([2]; with Example 6 @8 μg/ml) | MIC ATB combined with Example 6 @8 μg/ml ([4]; with Example 6 @8 μg/ml)
128 µg/mL: MIC [7, 12]
2 µg/mL: MIC [5, 12] | MIC ATB combined with Example 1 @8 μg/ml ([5]; with Example 1 @8 μg/ml) | MIC ATB combined with Example 15 @4 μg/ml ([5]; with Example 15 @4 μg/ml)
> 128 µg/mL: MIC [1, 12] | MIC [4, 12] | MIC [6, 12] | MIC [8, 12] | MIC [10, 12]
<=0.25 μg/mL: MIC ATB combined with Example 6 @8 μg/ml ([9]; with Example 6 @8 μg/ml) | MIC ATB combined with Example 6 @8 μg/ml ([10]; with Example 6 @8 μg/ml)
16 µg/mL: MIC [3, 12] | MIC ATB combined with Example 1 @8 μg/ml ([3]; with Example 1 @8 μg/ml) | MIC ATB combined with Example 6 @8 μg/ml ([3]; with Example 6 @8 μg/ml) | MIC ATB combined with Example 9 @4 μg/ml ([3]; with Example 9 @4 μg/ml) | MIC ATB combined with Example 11 @8 μg/ml ([3]; with Example 11 @8 μg/ml) | MIC ATB combined with Example 15 @4 μg/ml ([3]; with Example 15 @4 μg/ml) | MIC ATB combined with Example 6 @8 μg/ml ([7]; with Example 6 @8 μg/ml) | MIC [9, 12] | MIC ATB combined with Example 9 @4 μg/ml ([9]; with Example 9 @4 μg/ml) | MIC ATB combined with Example 11 @8 μg/ml ([9]; with Example 11 @8 μg/ml) | MIC ATB combined with Example 15 @4 μg/ml ([9]; with Example 15 @4 μg/ml) | MIC ATB combined with Example 1 @8 μg/ml ([10]; with Example 1 @8 μg/ml) | MIC ATB combined with Example 9 @4 μg/ml ([10]; with Example 9 @4 μg/ml) | MIC ATB combined with Example 11 @8 μg/ml ([10]; with Example 11 @8 μg/ml) | MIC ATB combined with Example 15 @4 μg/ml ([10]; with Example 15 @4 μg/ml) | MIC ATB combined with Example 6 @8 μg/ml ([11]; with Example 6 @8 μg/ml) | MIC ATB combined with Example 9 @4 μg/ml ([11]; with Example 9 @4 μg/ml) | MIC ATB combined with Example 10 @8 μg/ml ([11]; with Example 10 @8 μg/ml)
4 µg/mL: MIC ATB combined with Example 3 @8 μg/ml ([2]; with Example 3 @8 μg/ml) | MIC ATB combined with Example 12 @8 μg/ml ([2]; with Example 12 @8 μg/ml)
64 µg/mL: MIC ATB combined with Example 1 @8 μg/ml ([7]; with Example 1 @8 μg/ml) | MIC ATB combined with Example 10 @8 μg/ml ([7]; with Example 10 @8 μg/ml) | MIC ATB combined with Example 11 @8 μg/ml ([7]; with Example 11 @8 μg/ml) | MIC ATB combined with Example 12 @8 μg/ml ([7]; with Example 12 @8 μg/ml) | MIC [11, 12] | MIC ATB combined with Example 1 @8 μg/ml ([11]; with Example 1 @8 μg/ml)
8 µg/mL: MIC ATB combined with Example 1 @8 μg/ml ([2]; with Example 1 @8 μg/ml) | MIC ATB combined with Example 9 @4 μg/ml ([2]; with Example 9 @4 μg/ml) | MIC ATB combined with Example 10 @8 μg/ml ([2]; with Example 10 @8 μg/ml) | MIC ATB combined with Example 11 @8 μg/ml ([2]; with Example 11 @8 μg/ml) | MIC ATB combined with Example 15 @4 μg/ml ([2]; with Example 15 @4 μg/ml) | MIC ATB combined with Example 3 @8 μg/ml ([3]; with Example 3 @8 μg/ml) | MIC ATB combined with Example 10 @8 μg/ml ([3]; with Example 10 @8 μg/ml) | MIC ATB combined with Example 12 @8 μg/ml ([3]; with Example 12 @8 μg/ml) | MIC ATB combined with Example 3 @8 μg/ml ([6]; with Example 3 @8 μg/ml) | MIC ATB combined with Example 6 @8 μg/ml ([6]; with Example 6 @8 μg/ml) | MIC ATB combined with Example 10 @8 μg/ml ([6]; with Example 10 @8 μg/ml) | MIC ATB combined with Example 3 @8 μg/ml ([9]; with Example 3 @8 μg/ml) | MIC ATB combined with Example 10 @8 μg/ml ([9]; with Example 10 @8 μg/ml) | MIC ATB combined with Example 12 @8 μg/ml ([9]; with Example 12 @8 μg/ml) | MIC ATB combined with Example 3 @8 μg/ml ([10]; with Example 3 @8 μg/ml) | MIC ATB combined with Example 10 @8 μg/ml ([10]; with Example 10 @8 μg/ml) | MIC ATB combined with Example 12 @8 μg/ml ([10]; with Example 12 @8 μg/ml) | MIC ATB combined with Example 3 @8 μg/ml ([11]; with Example 3 @8 μg/ml) | MIC ATB combined with Example 12 @8 μg/ml ([11]; with Example 12 @8 μg/ml)
>128 µg/mL: MIC ATB combined with Example 1 @8 μg/ml ([1]; with Example 1 @8 μg/ml) | MIC ATB combined with Example 3 @8 μg/ml ([1]; with Example 3 @8 μg/ml) | MIC ATB combined with Example 6 @8 μg/ml ([1]; with Example 6 @8 μg/ml) | MIC ATB combined with Example 9 @4 μg/ml ([1]; with Example 9 @4 μg/ml) | MIC ATB combined with Example 10 @8 μg/ml ([1]; with Example 10 @8 μg/ml) | MIC ATB combined with Example 11 @8 μg/ml ([1]; with Example 11 @8 μg/ml) | MIC ATB combined with Example 12 @8 μg/ml ([1]; with Example 12 @8 μg/ml) | MIC ATB combined with Example 15 @4 μg/ml ([1]; with Example 15 @4 μg/ml) | MIC ATB combined with Example 1 @8 μg/ml ([4]; with Example 1 @8 μg/ml) | MIC ATB combined with Example 3 @8 μg/ml ([4]; with Example 3 @8 μg/ml) | MIC ATB combined with Example 9 @4 μg/ml ([4]; with Example 9 @4 μg/ml) | MIC ATB combined with Example 10 @8 μg/ml ([4]; with Example 10 @8 μg/ml) | MIC ATB combined with Example 11 @8 μg/ml ([4]; with Example 11 @8 μg/ml) | MIC ATB combined with Example 12 @8 μg/ml ([4]; with Example 12 @8 μg/ml) | MIC ATB combined with Example 15 @4 μg/ml ([4]; with Example 15 @4 μg/ml) | MIC ATB combined with Example 1 @8 μg/ml ([8]; with Example 1 @8 μg/ml) | MIC ATB combined with Example 3 @8 μg/ml ([8]; with Example 3 @8 μg/ml) | MIC ATB combined with Example 6 @8 μg/ml ([8]; with Example 6 @8 μg/ml) | MIC ATB combined with Example 9 @4 μg/ml ([8]; with Example 9 @4 μg/ml) | MIC ATB combined with Example 10 @8 μg/ml ([8]; with Example 10 @8 μg/ml) | MIC ATB combined with Example 11 @8 μg/ml ([8]; with Example 11 @8 μg/ml) | MIC ATB combined with Example 12 @8 μg/ml ([8]; with Example 12 @8 μg/ml) | MIC ATB combined with Example 15 @4 μg/ml ([8]; with Example 15 @4 μg/ml)
